Measured values as given in patent US11931365B2, “Use of PPAR-delta agonists in the treatment of disease” (Reneo Pharmaceuticals, Inc., priority 2022, dated 2024).

How the values were obtained:
Type in all cases: physicochemical
[1] = Gravimetric Vapor Sorption (GVS); conditions: 25° C., w/w
Description: Sorption isotherms were obtained using a SMS DVS Intrinsic moisture sorption analyzer, controlled by DVS Intrinsic Control software. The sample temperature was maintained at 25° C. by the instrument controls. The humidity was controlled by mixing streams of dry and wet nitrogen, with a total flow rate of 200 ml/min. The relative humidity was measured by a calibrated Rotronic probe (dynamic range of 1.0-100% RH), located near the sample. The weight change, (mass relaxation) of the sample as a function of % RH was constantly monitored by a microbalance (accuracy ±0.005 mg).
Typically, 5-30 mg of sample was placed in a tared mesh stainless steel basket under ambient conditions. The sample was loaded and unloaded at 40% RH and 25° C. (typical room conditions). A moisture sorption isotherm was performed as outlined below (2 scans per complete cycle). The standard isotherm was performed at 25° C. at 10% RH intervals over a 0-90% RH range. Typically, a double cycle (4 scans) was carried out. Data analysis was carried out within Microsoft Excel using the DVS Analysis Suite.

[2] = XRPD re-analysis after GVS isotherm; conditions: after isotherm at 90% RH and 25° C.
Description: The samples were recovered after completion of the isotherm experiment at 90% RH and 25° C. and re-analyzed by XRPD.

[3] = Stability of solid state forms (storage, drying), XRPD; conditions: for XRPD after static storage: 40° C./75% RH for 10 days; for XRPD after ambient storage: 24 hours, 48 hours, 7 days, or 10 days
Description: Samples were assessed for stability under ambient or static storage conditions of 25° C./[…] and 40° C./75% RH for 7 or 10 days. The samples were then re-analyzed by XRPD. Subsequent XRPD analysis results for the crystalline forms are described below: […]

[4] = listed as crystalline Form 2 of Compound II
[5] = listed as crystalline Form 3 of Compound II
[6] = listed as crystalline Pattern 9 of Compound II
[7] = listed as amorphous Compound II

For `Cc1cc(OC/C=C(/c2ccc(F)cc2)c2ccc(C#CCN3CCOCC3)cc2)ccc1OCC(=O)[O-].[Na+]` [Form 2, sodium (E)-2-(4-((3-(4-fluorophenyl)-3-(4-(3-morpholinoprop-1-yn-1-yl)phenyl)allyl)oxy)-2-methylphenoxy)acetate], which “Reversible Water Uptake between 0-90% RH” value [1] is on record?
Its value is ~25%.

What about the “Reversible Water Uptake between 0-90% RH” value [1, 4] of the same compound?
Its value is ~25%.

And the “Solid State Form After GVS (XRPD)” value [2]?
The value was “Unchanged (Form 2)”.

What about the “Solid State Form After GVS (XRPD)” value [2, 4] of the same compound?
Its value is “unchanged”.

What about the “XRPD form after storage” value ([3]; 25° C./97% RH/7 days) of the same compound?
Its value is “Unchanged (Form 2)”.

What about the “XRPD form after storage” value ([3]; 25° C./97% RH/7 days, listed as crystalline Form 2 of Compound II) of the same compound?
The value was “unchanged”.

What about the “XRPD form after storage” value ([3]; 40° C./75% RH/7 days) of the same compound?
The value was “Unchanged (Form 2)”.

And the “XRPD form after storage” value ([3]; 40° C./75% RH/7 days, listed as crystalline Form 2 of Compound II)?
The value was “unchanged”.

Which “Reversible Water Uptake between 0-90% RH” value [1] does the source give for `Cc1cc(OC/C=C(/c2ccc(F)cc2)c2ccc(C#CCN3CCOCC3)cc2)ccc1OCC(=O)[O-].[Na+]` [Form 3, sodium (E)-2-(4-((3-(4-fluorophenyl)-3-(4-(3-morpholinoprop-1-yn-1-yl)phenyl)allyl)oxy)-2-methylphenoxy)acetate] here?
Its value is ~9.0%.

What about the “Reversible Water Uptake between 0-90% RH” value [1, 5] of the same compound?
Its value is ~9.0%.

What about the “Solid State Form After GVS (XRPD)” value [2] of the same compound?
The value was “Form 1”.

What about the “Solid State Form After GVS (XRPD)” value [2, 5] of the same compound?
The value was “converts to Form 1”.

What about the “XRPD form after storage” value ([3]; 40° C./75% RH/7 days) of the same compound?
The value was “Form 1”.

And the “XRPD form after storage” value ([3]; 40° C./75% RH/7 days, listed as crystalline Form 3 of Compound II)?
Its value is “converts to Form 1”.

What about the “form change on drying” value [3] of the same compound?
Its value is “converts to Form 1”.

And the “form change on standing” value ([3]; standing in ambient conditions)?
The value was “converts to Form 1”.

What does the source list for `Cc1cc(OC/C=C(/c2ccc(F)cc2)c2ccc(C#CCN3CCOCC3)cc2)ccc1OCC(=O)[O-].[Na+]` [Form 5, sodium (E)-2-(4-((3-(4-fluorophenyl)-3-(4-(3-morpholinoprop-1-yn-1-yl)phenyl)allyl)oxy)-2-methylphenoxy)acetate]?
Reversible Water Uptake between 0-90% RH [1]: ~11%; Solid State Form After GVS (XRPD) [2]: Form 1; Solid State Form After GVS (XRPD) ([2]; listed as crystalline Form 5 of Compound II): converts to Form 1; form change on drying [3]: converts to Form 1

With `Cc1cc(OC/C=C(/c2ccc(F)cc2)c2ccc(C#CCN3CCOCC3)cc2)ccc1OCC(=O)[O-].[Na+]` [Pattern 5, sodium (E)-2-(4-((3-(4-fluorophenyl)-3-(4-(3-morpholinoprop-1-yn-1-yl)phenyl)allyl)oxy)-2-methylphenoxy)acetate] as the compound, how does the “stability of the solid form” value [3] read?
The value was “unstable”.

With `Cc1cc(OC/C=C(/c2ccc(F)cc2)c2ccc(C#CCN3CCOCC3)cc2)ccc1OCC(=O)[O-].[Na+]` [Pattern 8, sodium (E)-2-(4-((3-(4-fluorophenyl)-3-(4-(3-morpholinoprop-1-yn-1-yl)phenyl)allyl)oxy)-2-methylphenoxy)acetate] as the compound, how does the “form change on drying” value [3] read?
The value was “converts to Form 1”.

Which “Reversible Water Uptake between 0-90% RH” value [1] does the source give for `Cc1cc(OC/C=C(/c2ccc(F)cc2)c2ccc(C#CCN3CCOCC3)cc2)ccc1OCC(=O)[O-].[Na+]` [Pattern 9, sodium (E)-2-(4-((3-(4-fluorophenyl)-3-(4-(3-morpholinoprop-1-yn-1-yl)phenyl)allyl)oxy)-2-methylphenoxy)acetate] here?
The value was ~27%.

What about the “Reversible Water Uptake between 0-90% RH” value [1, 6] of the same compound?
The value was ~27%.

What about the “Solid State Form After GVS (XRPD)” value [2] of the same compound?
Its value is “Unchanged (Pattern 9)”.

What about the “Solid State Form After GVS (XRPD)” value [2, 6] of the same compound?
Its value is “unchanged”.

For `Cc1cc(OC/C=C(/c2ccc(F)cc2)c2ccc(C#CCN3CCOCC3)cc2)ccc1OCC(=O)[O-].[Na+]` [amorphous, sodium (E)-2-(4-((3-(4-fluorophenyl)-3-(4-(3-morpholinoprop-1-yn-1-yl)phenyl)allyl)oxy)-2-methylphenoxy)acetate], which “XRPD after static storage” value [3, 7] is on record?
The value was “unchanged”.

What about the “XRPD after static storage” value ([3]; listed as amorphous solid form) of the same compound?
Its value is “no change”.

And the “XRPD after ambient storage” value [3, 7]?
Its value is “unchanged”.

What about the “XRPD after ambient storage” value ([3]; listed as amorphous solid form) of the same compound?
Its value is “no change”.
